Laboratory results as given in US8642611B2, “Alkynylpyrimidines and salts thereof, pharmaceutical compositions comprising same, methods of preparing same and uses of same” (Bayer Intellectual Property GmbH, priority 2007, dated 2014).

How the values were obtained:
MVECs = experiment: VEGF-Stimulated Endothelial Cell Proliferation Assay; assay type: cell-based; settings: 72 h, 3 days, Alamar Blue, read-out: EC proliferation (assay 5)
Procedure: Assay 5: VEGF-Stimulated Endothelial Cell Proliferation Assay
MVECs are plated to collagen coated 48 well plates at a density of 30 000 cells per well in Earles's Medium M199 (complete with serum). After 4 h the medium is exchanged for medium containing 2% human serum without growth factors (200 μl) and cells are maintained overnight at low serum conditions. The other day the medium is exchanged for the same low serum medium containing in addition test compounds or vehicle in the appropriate concentrations using appropriate controls is exchanged. Five minutes later low serum medium containing 40 ng/ml VEGF is added (200 μl). Cells are cultured for 3 days before mixing with Alamar Blue® (dilution factor of 1: 20) and incubating it for 2 h at 37° C. Measurement of fluorescence intensity is done with the following filters: 528/25 Excitation, 590/35 Emission for the determination of the IC50 concentrations.
Culture Medium Composition
Earle's Medium 199 with stable Glutamine (PAA)+5 ml PenStrep (100×; 10000 Units/10 mg/ml) (PAA)+5 ml Non Essential Amino Acids (100×; without L-Glutamine) (PAA)+5 ml Sodium Pyruvat (100 mM) (PAA)+50 ml FCS (PAA)+50 ml HS+1 ml ECGS in Dulbecco's PBS without Ca2++Mg2+(5 mg/ml) (Sigma)+1 ml Heparin (2500 Units/ml)+2.5 ml Biotect-Protection medium (Biochrom AG)=complete Earle's M 199 medium
Earle's Medium 199 (PAA) with stable Glutamine+5 ml PenStrep (100×; 10000 Units/10 mg/ml) (PAA)+5 ml Non Essential Amino Acids (100×; without L-Glutamine) (PAA)+5 ml Sodium Pyruvat (100 mM) (PAA), 2% HS+2.5 ml Biotect- Protection medium (Biochrom AG)

human Aurora-C = molecular target: T1, human Aurora-C (Homo sapiens, UniProt Q9UQB9); experiment: Aurora-C Kinase Assay; assay type: biochemical; settings: Aurora-C HTRF, 10 μM ATP; read-out: Aurora C activity (assay 7)
T1 construct: GST; made in house; host or cells: transiently transfected HEK293 cells (the print adds '(Sf9)', which contradicts this)
T1 sequence (Q9UQB9 1-309): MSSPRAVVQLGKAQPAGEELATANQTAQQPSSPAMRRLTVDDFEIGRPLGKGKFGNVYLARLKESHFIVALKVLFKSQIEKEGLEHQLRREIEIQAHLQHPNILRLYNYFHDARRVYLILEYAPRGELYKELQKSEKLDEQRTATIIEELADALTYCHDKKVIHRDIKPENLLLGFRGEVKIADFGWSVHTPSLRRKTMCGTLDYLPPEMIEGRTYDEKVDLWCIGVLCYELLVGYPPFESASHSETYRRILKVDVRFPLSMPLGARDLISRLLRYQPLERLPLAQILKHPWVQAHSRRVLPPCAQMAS
From the text: Assay 7: Aurora-C Kinase Assay
Aurora-C inhibitory activity of compounds of the present invention was quantified employing the Aurora-C HTRF assay as described in the following paragraphs.
Recombinant fusion protein of GST and human Aurora-C was expressed in transiently transfected HEK293 cells […] and purified by Glutathion-Sepharose affinity chromatography. As substrate for the kinase reaction biotinylated peptide biotin-Ttds-FMRLRRLSTKYRT (C-terminus in amid form) was used which can be purchased e.g. form the company JERINI peptide technologies (Berlin, Germany). Aurora-C was incubated for 60 min at 22° C. in the presence of different concentrations of test compounds in 5 μl assay buffer [25 mM Hepes/NaOH pH 7.4, 0.5 mM MnCl2, 2.0 mM dithiothreitol, 0.1 mM sodium ortho-vanadate, 10 μM adenosine-tri-phosphate (ATP), […] substrate, 0.01% (v/v) TritonX-100 (Sigma), 0.05% (w/v) bovine serum albumin, 1% (v/v) dimethylsulfoxide]. The concentration of Aurora-C was adjusted depending of the activity of the enzyme lot and was chosen appropriate to have the assay in the linear range, typical concentrations were in the range of 0.3 nM. The reaction was stopped by the addition of 5 μl of a solution of HTRF detection reagents (0.2 μM streptavidine-XLent and 1.4 nM Anti-Phospho-(Ser/Thr) Akt substrate-Cryptate (C is biointernational, France, product no. 61PO2KAE), a labeled Phospho-(Ser/Thr) Akt substrate antibody [product #9611B, Cell Signaling Technology, Danvers, Mass., USA] labeled with Europium Cryptate, in an aqueous EDTA-solution (40 mM EDTA, 400 mM KF, 0.05% (w/v) bovine serum albumin in 25 mM HEPES/NaOH pH 7.0).
The resulting mixture was incubated 1 h at 22° C. to allow the binding of the biotinylated phosphorylated peptide to the streptavidine-XLent and the Anti-Phospho-(Ser/Thr) Akt substrate-Cryptate. Subsequently the amount of phosphorylated substrate was evaluated by measurement of the resonance energy transfer from the Prot-A-EuK to the streptavidine-XLent. Therefore, the fluorescence emissions at 620 nm and 665 nm after excitation at 350 nm was measured in a HTRF reader, e.g. a Rubystar (BMG Labtechnologies, Offenburg, Germany) or a Viewlux (Perkin-Elmer). The ratio of the emissions at 665 nm and at […] was taken as the measure for the amount of phosphorylated substrate. The data were normalised (enzyme reaction without inhibitor=0% inhibition, all other assay components but no enzyme=100% inhibition) and IC50 values were calculated by a 4 parameter fit using an inhouse software.

| Structure (SMILES) | IC50 (human Aurora-C) [µM] | IC50 (MVECs) [µM] |
| --- | --- | --- |
| COc1ccc(C#Cc2cnc(Nc3cccc(S(C)(=N)=O)c3)nc2N[C@H](C)CO)cc1 (mixture of isomers) [Example 1.17, (RS)-S-(3-[4-((R)-2-Hydroxy-1-methyl-ethylamino)-5-(4-methoxy-phenylethynyl)-pyrimidin-2-ylamino]-phenyl)-S-methylsulfoximide] | > 10 | – |
| C[C@H](CO)Nc1nc(Nc2ccc(S(C)(=N)=O)cc2)ncc1C#Cc1ccccc1 (mixture of isomers) [Example 1.2, (RS)-S-(4-[4-((R)-2-Hydroxy-1-methyl-ethylamino)-5-(phenylethynyl)-pyrimidin-2-ylamino]-phenyl)-S-methylsulfoximide] | > 10 | < 0.5 |
| Cc1ccc(C#Cc2cnc(Nc3ccc(S(C)(=N)=O)cc3)nc2N[C@H](C)CO)cc1 (mixture of isomers) [Example 1.5] | > 10 | < 0.5 |
| CC(C)NC(=O)N=S(C)(=O)c1cccc(Nc2ncc(C#Cc3cccc(O)c3)c(N[C@H](C)CO)n2)c1 (mixture of isomers) [Example 1.15, (RS)-S-(3-[4-((R)-2-Hydroxy-1-methyl-ethylamino)-5-(3-hydroxy-phenylethynyl)-pyrimidin-2-ylamino]-phenyl)-N-(isopropylcarbamoyl)-S-methylsulfoximide] | > 10 | – |
| C[C@H](CO)Nc1nc(Nc2cccc(S(C)(=N)=O)c2)ncc1C#Cc1cccc(O)c1 (mixture of isomers) [Example 1.18, (RS)-S-(3-[4-((R)-2-Hydroxy-1-methyl-ethylamino)-5-(3-hydroxy-phenylethynyl)-pyrimidin-2-ylamino]-phenyl)-S-methylsulfoximide] | > 10 | < 0.5 |
| COc1ccc(C#Cc2cnc(Nc3ccc(S(C)(=N)=O)cc3)nc2N[C@H](C)CO)cc1 (mixture of isomers) [Example 1.1, (RS)—S-(4-[4-((R)-2-Hydroxy-1-methyl-ethylamino)-5-(4-methoxy-phenylethynyl)-pyrimidin-2-ylamino]-phenyl)-S-methylsulfoximide] | > 10 | < 0.5 |
| Cc1ccccc1C#Cc1cnc(Nc2ccc(S(C)(=N)=O)cc2)nc1N[C@H](C)CO (mixture of isomers) [Example 1.3] | > 10 | < 0.5 |
| CCc1ccc(C#Cc2cnc(Nc3ccc(S(C)(=N)=O)cc3)nc2N[C@H](C)CO)cc1 (mixture of isomers) [Example 1.8, (RS)-S-(4-[5-(4-Ethyl-phenylethynyl)-4-((R)-2-hydroxy-1-methyl-ethylamino)-pyrimidin-2-ylamino]-phenyl)-S-methylsulfoximide] | > 10 | – |
| CS(=N)(=O)c1cccc(Nc2ncc(C#Cc3cccc(O)c3)cn2)c1 (racemic) [Example 4.2, (RS)—S-(3-[5-(3-hydroxy-phenylethynyl)-pyrimidin-2-ylamino]-phenyl)-S-methylsulfoximide] | > 10 | – |

The next lines start with results.

| IC50 (human Aurora-C) [µM] | Structure (SMILES) | IC50 (MVECs) [µM] |
| --- | --- | --- |
| > 10 | Cc1ccccc1C#Cc1cnc(Nc2cccc(S(C)(=N)=O)c2)nc1N[C@H](C)CO (mixture of isomers) [Example 1.19, (RS)-S-(3-[4-((R)-2-Hydroxy-1-methyl-ethylamino)-5-(2-methyl-phenylethynyl)-pyrimidin-2-ylamino]-phenyl)-S-methylsulfoximide] | < 0.5 |
| > 10 | Cc1cc(C#Cc2cnc(Nc3ccc(S(C)(=N)=O)cc3)nc2N[C@H](C)CO)ccc1F (mixture of isomers) [Example 1.13, (RS)-S-(4-[5-(4-Fluoro-3-methyl-phenyl-ethynyl)-4-((R)-2-hydroxy-1-methyl-ethylamino)-pyrimidin-2-ylamino]-phenyl)-S-methylsulfoximide] | < 0.5 |
| > 10 | C[C@H](CO)Nc1nc(Nc2ccc(S(C)(=N)=O)cc2)ncc1C#Cc1ccc(F)cc1 (mixture of isomers) [Example 1.9, (RS)-S-(4-[5-(4-Fluoro-phenyl-ethynyl)-4-((R)-2-hydroxy-1-methyl-ethylamino)-pyrimidin-2-ylamino]-phenyl)-S-methylsulfoximide] | < 0.5 |
| > 10 | Cc1cc(C#Cc2cnc(Nc3cccc(S(C)(=N)=O)c3)nc2N[C@H](C)CO)ccc1F (mixture of isomers) [Example 1.20, (RS)-S-(3-[5-(4-Fluoro-3-methyl-phenyl-ethynyl)-4-((R)-2-hydroxy-1-methyl-ethylamino)-pyrimidin-2-ylamino]-phenyl)-S-methylsulfoximide] | < 0.5 |
| 1 to 10 | CCNc1nc(Nc2ccc(S(C)(=N)=O)cc2)ncc1C#Cc1ccc(F)c(C)c1 (racemic) [Example 1.24, (RS)-S-(4-[4-ethylamino-5-(4-fluoro-3-methyl-phenyl-ethynyl)-pyrimidin-2-ylamino]-phenyl)-S-methylsulfoximide] | – |
| 1 to 10 | CCNc1nc(Nc2ccc(S(C)(=N)=O)cc2)ncc1C#Cc1ccc(OC)cc1 (racemic) [Example 1.26, (RS)-S-(4-[4-ethylamino-5-(4-methoxy-phenyl-ethynyl)-pyrimidin-2-ylamino]-phenyl)-S-methylsulfoximide] | – |
| 1 to 10 | CCOC(=O)N=S(C)(=O)c1ccc(Nc2ncc(C#Cc3cccc(O)c3)c(N[C@H](C)CO)n2)cc1 (mixture of isomers) [Example 2.7] | < 0.5 |
